The values below come from PubChem BioAssay (NCI).

Values joined by “and” are separate entries in the source; they are usually repeats but may differ in a detail not shown here. Identical values can stand only once.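 Tested at 5 concentrations; 48 h exposure; 96-well plates; endpoints linearly interpolated, else capped at highest concentration. Here, GI50 denotes the concentration required for 50% inhibition of growth. The concentration for full growth arrest is given as TGI.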 Some results are limits rather than exact numbers.

The subject of one experiment is NCI/ADR-RES ovarian. Kind of experiment: NCI tumour cell line growth inhibition, 48 h.
`Cc1ccn2c3c(c(C(=O)O)c2c1)C(=O)c1ccccc1C3=O`: the GI50 is 49.8 µM and the TGI was > 100 µM.
The corresponding values for `COc1cc2ncn(-c3cc(OCc4ccccc4Cl)c(C(N)=O)s3)c2cc1OC` are 0.22 µM and > 10.3 µM.
Regarding `Cc1ccc2c(C(C[N+](=O)[O-])c3cccs3)c(-c3ccccc3)[nH]c2c1` (stereo not drawn), the GI50 is 0.984 µM and the TGI worked out at 3.68 µM.
For `N/C(CC(=O)Nc1cc(C(F)(F)F)ccc1Cl)=N\O`, the TGI was > 100 µM.
Same read-out and setting: the value for `CC(CO)(CO)N=Cc1cc(I)cc(I)c1O` was 63.2 µM.
Turning to `CCN1CCN(c2nc(NCCCNc3ccnc4cc(Cl)ccc34)c3ccccc3n2)CC1`, the GI50 is 15.2 µM and the TGI turned out to be 32.3 µM.
In the same order, the values of `CC1(C)N=C(N)N=C(N)N1c1ccc(CCCCc2ccc(S(=O)(=O)F)cc2)cc1` are > 90.2 µM and > 100 µM.
Regarding `NC(N)=N/N=C(/c1ccccc1)c1ccc(F)cc1`, the GI50 is 0.766 µM and the TGI was determined as 4.19 µM.
In the same order, the values of `COc1cc(C(=O)NC2c3ccccc3-c3ccccc32)c(N)cc1OCc1ccccc1` are 35.3 µM and > 100 µM.
In the same order, the values of `COc1ccc(C(=S)N2CCN(c3cccc(Cl)c3)CC2)cc1` are 97 µM and > 100 µM.
As for `Clc1ccccc1C(c1ccccc1)(c1ccccc1)n1ccnc1`, the GI50 was 2.88 µM; the TGI was 13.3 µM and 28.2 µM.
`CCCCCCCCCCCCCC(=S)NCCCC[C@H](NC(=O)OCc1ccccc1)C(=O)Nc1ccccc1`: the GI50 was 5.11 µM and the TGI was > 100 µM.
Take `COc1ccc(C(=O)Nc2ncc(Cc3ccc(Cl)cc3)s2)cc1`: the GI50 was 0.0457 µM.
As for `CC(C)(C)c1cc(O)c(O)c(C(C)(C)C)c1`, the GI50 was 3.54 µM and the TGI came to 17.9 µM.
In the same order, the values of `CN1CCN(CC#Cc2cccc(C(=O)c3cnn(-c4ccc(F)cc4)c3N)c2)CC1` are > 25 µM and > 25 µM.
Take `COc1cccc(/C=C/C(=O)c2cc3c(N)c(C(=O)Nc4ccccc4C)sc3nc2C)c1`: the GI50 was 1.51 µM and the TGI was > 50 µM.

Another experiment concerns OVCAR-4 ovarian. Kind of experiment: NCI tumour cell line growth inhibition, 48 h.
Consider `Cc1ccn2c3c(c(C(=O)O)c2c1)C(=O)c1ccccc1C3=O`, for which the GI50 is 12.6 µM and the TGI is > 100 µM.
For the compound `COc1cc2ncn(-c3cc(OCc4ccccc4Cl)c(C(N)=O)s3)c2cc1OC`, the GI50 was 2.09 µM and the TGI is > 25 µM.
In the same order, the values of `Cc1ccc2c(C(C[N+](=O)[O-])c3cccs3)c(-c3ccccc3)[nH]c2c1` (stereo not drawn) are 4.45 µM and 13.9 µM.
As to `N/C(CC(=O)Nc1cc(C(F)(F)F)ccc1Cl)=N\O`, the TGI was > 100 µM.
Still for that read-out and setting: the value for `CC(CO)(CO)N=Cc1cc(I)cc(I)c1O` was 37.2 µM.
As to `CCN1CCN(c2nc(NCCCNc3ccnc4cc(Cl)ccc34)c3ccccc3n2)CC1`, the GI50 was 2.12 µM and the TGI worked out at 9.57 µM.
In the same order, the values of `CC1(C)N=C(N)N=C(N)N1c1ccc(CCCCc2ccc(S(=O)(=O)F)cc2)cc1` are 8.23 µM and > 86.5 µM.
In the same order, the values of `NC(N)=N/N=C(/c1ccccc1)c1ccc(F)cc1` are 1.01 µM and 37.7 µM.
The corresponding values for `COc1cc(C(=O)NC2c3ccccc3-c3ccccc32)c(N)cc1OCc1ccccc1` are 5.16 µM and 32.2 µM.
Turning to `COc1ccc(C(=S)N2CCN(c3cccc(Cl)c3)CC2)cc1`, the GI50 was > 100 µM and the TGI was > 100 µM.
For the compound `Clc1ccccc1C(c1ccccc1)(c1ccccc1)n1ccnc1`, the GI50 is 2.95 µM; the TGI is 15.5 µM and 41.3 µM.
Regarding `CCCCCCCCCCCCCC(=S)NCCCC[C@H](NC(=O)OCc1ccccc1)C(=O)Nc1ccccc1`, the GI50 is 3.9 µM and the TGI is > 100 µM.
In the same order, the values of `COc1ccc(C(=O)Nc2ncc(Cc3ccc(Cl)cc3)s2)cc1` are 2.7 µM and > 100 µM.
The corresponding values for `CC(C)(C)c1cc(O)c(O)c(C(C)(C)C)c1` are 2.31 µM and 5.84 µM.
The corresponding values for `CN1CCN(CC#Cc2cccc(C(=O)c3cnn(-c4ccc(F)cc4)c3N)c2)CC1` are > 25 µM and > 25 µM.
With `COc1cccc(/C=C/C(=O)c2cc3c(N)c(C(=O)Nc4ccccc4C)sc3nc2C)c1`, the GI50 is 2.38 µM and the TGI worked out at 11.2 µM.

The next experiment has as its system PC-3 prostate. Kind of experiment: NCI tumour cell line growth inhibition, 48 h.
For the compound `Cc1ccn2c3c(c(C(=O)O)c2c1)C(=O)c1ccccc1C3=O`, the GI50 is > 100 µM and the TGI is > 100 µM.
Regarding `COc1cc2ncn(-c3cc(OCc4ccccc4Cl)c(C(N)=O)s3)c2cc1OC`, the GI50 is 1 µM and the TGI is > 25 µM.
As to `Cc1ccc2c(C(C[N+](=O)[O-])c3cccs3)c(-c3ccccc3)[nH]c2c1` (stereo not drawn), the GI50 was 2.46 µM and the TGI was determined as 16.1 µM.
On to `N/C(CC(=O)Nc1cc(C(F)(F)F)ccc1Cl)=N\O`, for which the TGI is > 100 µM.
Consider `CC(CO)(CO)N=Cc1cc(I)cc(I)c1O`, for which the TGI stood at 32.1 µM.
Take `CCN1CCN(c2nc(NCCCNc3ccnc4cc(Cl)ccc34)c3ccccc3n2)CC1`: the GI50 was 3.09 µM and the TGI is 14.5 µM.
The corresponding values for `CC1(C)N=C(N)N=C(N)N1c1ccc(CCCCc2ccc(S(=O)(=O)F)cc2)cc1` are 0.094 µM and 23.5 µM.
As to `NC(N)=N/N=C(/c1ccccc1)c1ccc(F)cc1`, the GI50 is 0.382 µM and the TGI worked out at 18.8 µM.
The corresponding values for `COc1cc(C(=O)NC2c3ccccc3-c3ccccc32)c(N)cc1OCc1ccccc1` are 27.5 µM and > 66.1 µM.
For `COc1ccc(C(=S)N2CCN(c3cccc(Cl)c3)CC2)cc1`, the GI50 is 38.6 µM and the TGI is > 100 µM.
`Clc1ccccc1C(c1ccccc1)(c1ccccc1)n1ccnc1`: the GI50 is 1.67 µM; the TGI is 12.4 µM and 20.2 µM.
`CCCCCCCCCCCCCC(=S)NCCCC[C@H](NC(=O)OCc1ccccc1)C(=O)Nc1ccccc1`: the GI50 was 2.58 µM and the TGI was > 100 µM.
In the same order, the values of `COc1ccc(C(=O)Nc2ncc(Cc3ccc(Cl)cc3)s2)cc1` are 0.0528 µM and > 100 µM.
In the same order, the values of `CC(C)(C)c1cc(O)c(O)c(C(C)(C)C)c1` are 3.55 µM and 15.9 µM.
The corresponding values for `CN1CCN(CC#Cc2cccc(C(=O)c3cnn(-c4ccc(F)cc4)c3N)c2)CC1` are > 25 µM and > 25 µM.
Take `COc1cccc(/C=C/C(=O)c2cc3c(N)c(C(=O)Nc4ccccc4C)sc3nc2C)c1`: the GI50 was 1.69 µM and the TGI was 8.3 µM.

Another experiment relates to SR leukemia. In words: NCI tumour cell line growth inhibition, 48 h.
Take `Cc1ccn2c3c(c(C(=O)O)c2c1)C(=O)c1ccccc1C3=O`: the GI50 was > 30.5 µM and the TGI is > 100 µM.
The corresponding values for `COc1cc2ncn(-c3cc(OCc4ccccc4Cl)c(C(N)=O)s3)c2cc1OC` are 0.113 µM and > 25 µM.
For the compound `Cc1ccc2c(C(C[N+](=O)[O-])c3cccs3)c(-c3ccccc3)[nH]c2c1` (stereo not drawn), the GI50 is 1.43 µM and the TGI is > 33.3 µM.
As to `N/C(CC(=O)Nc1cc(C(F)(F)F)ccc1Cl)=N\O`, the TGI was > 100 µM.
In turn, `CC(CO)(CO)N=Cc1cc(I)cc(I)c1O` gave a TGI of 54.1 µM.
Regarding `CCN1CCN(c2nc(NCCCNc3ccnc4cc(Cl)ccc34)c3ccccc3n2)CC1`, the GI50 was 1.29 µM and the TGI came to 5.44 µM.
The corresponding values for `CC1(C)N=C(N)N=C(N)N1c1ccc(CCCCc2ccc(S(=O)(=O)F)cc2)cc1` are 0.58 µM and 25.8 µM.
`NC(N)=N/N=C(/c1ccccc1)c1ccc(F)cc1`: the GI50 was 0.286 µM and the TGI was found to be 6.11 µM.
In the same order, the values of `COc1cc(C(=O)NC2c3ccccc3-c3ccccc32)c(N)cc1OCc1ccccc1` are 98.6 µM and > 100 µM.
The corresponding values for `COc1ccc(C(=S)N2CCN(c3cccc(Cl)c3)CC2)cc1` are > 100 µM and > 100 µM.
Turning to `Clc1ccccc1C(c1ccccc1)(c1ccccc1)n1ccnc1`, the GI50 is 1.86 µM and the TGI is 6.93 µM.
For `CCCCCCCCCCCCCC(=S)NCCCC[C@H](NC(=O)OCc1ccccc1)C(=O)Nc1ccccc1`, the GI50 was 3.9 µM and the TGI is > 100 µM.
In the same order, the values of `COc1ccc(C(=O)Nc2ncc(Cc3ccc(Cl)cc3)s2)cc1` are 0.0375 µM and > 70.4 µM.
In the same order, the values of `CC(C)(C)c1cc(O)c(O)c(C(C)(C)C)c1` are 2.38 µM and 6.64 µM.
For `CN1CCN(CC#Cc2cccc(C(=O)c3cnn(-c4ccc(F)cc4)c3N)c2)CC1`, the GI50 was > 25 µM and the TGI was > 25 µM.
For the compound `COc1cccc(/C=C/C(=O)c2cc3c(N)c(C(=O)Nc4ccccc4C)sc3nc2C)c1`, the GI50 was 1.09 µM and the TGI was 4.2 µM.

For the next experiment, the system named is UACC-257 melanoma. Kind of experiment: NCI tumour cell line growth inhibition, 48 h.
As for `Cc1ccn2c3c(c(C(=O)O)c2c1)C(=O)c1ccccc1C3=O`, the GI50 is 4.41 µM and the TGI was > 60.3 µM.
Consider `COc1cc2ncn(-c3cc(OCc4ccccc4Cl)c(C(N)=O)s3)c2cc1OC`, for which the TGI was > 25 µM.
For `Cc1ccc2c(C(C[N+](=O)[O-])c3cccs3)c(-c3ccccc3)[nH]c2c1` (stereo not drawn), the GI50 was 3.88 µM and the TGI came out at 13.7 µM.
With `N/C(CC(=O)Nc1cc(C(F)(F)F)ccc1Cl)=N\O`, the TGI is > 100 µM.
As for `CC(CO)(CO)N=Cc1cc(I)cc(I)c1O`, the TGI turned out to be 45.1 µM.
Turning to `CCN1CCN(c2nc(NCCCNc3ccnc4cc(Cl)ccc34)c3ccccc3n2)CC1`, the GI50 is 2.01 µM and the TGI worked out at 3.97 µM.
In the same order, the values of `CC1(C)N=C(N)N=C(N)N1c1ccc(CCCCc2ccc(S(=O)(=O)F)cc2)cc1` are 2.07 µM and 18.3 µM.
In the same order, the values of `NC(N)=N/N=C(/c1ccccc1)c1ccc(F)cc1` are 2.94 µM and 32.8 µM.
The corresponding values for `COc1cc(C(=O)NC2c3ccccc3-c3ccccc32)c(N)cc1OCc1ccccc1` are 58.7 µM and > 100 µM.
Consider `COc1ccc(C(=S)N2CCN(c3cccc(Cl)c3)CC2)cc1`, for which the GI50 is > 100 µM and the TGI was > 100 µM.
In the case of `Clc1ccccc1C(c1ccccc1)(c1ccccc1)n1ccnc1`, the GI50 is 3.43 µM; the TGI was 14.2 µM and 25.2 µM.
Consider `CCCCCCCCCCCCCC(=S)NCCCC[C@H](NC(=O)OCc1ccccc1)C(=O)Nc1ccccc1`, for which the GI50 is 5.38 µM and the TGI is > 100 µM.
The corresponding values for `COc1ccc(C(=O)Nc2ncc(Cc3ccc(Cl)cc3)s2)cc1` are 20 µM and > 100 µM.
As to `CC(C)(C)c1cc(O)c(O)c(C(C)(C)C)c1`, the GI50 is 2.42 µM and the TGI was 7.4 µM.
As to `CN1CCN(CC#Cc2cccc(C(=O)c3cnn(-c4ccc(F)cc4)c3N)c2)CC1`, the GI50 was > 25 µM and the TGI was > 25 µM.
`COc1cccc(/C=C/C(=O)c2cc3c(N)c(C(=O)Nc4ccccc4C)sc3nc2C)c1`: the GI50 is 1.21 µM and the TGI stood at 3.75 µM.
